Data reported in ChEMBL document CHEMBL4138135, “Optimization of physicochemical properties for 4-anilinoquinazoline inhibitors of trypanosome proliferation” (Eur J Med Chem, 2017).

Experiments:
[1] = Lipophilicity, log P of the compound; type: physicochemical; details: octanol/water
[2] = Distribution coefficient, log D of the compound at pH 7.4; type: physicochemical; details: octanol/water

logP ([1]; read-out: logP)	logD ([2]; read-out: logD)	logP [1]	logD [2]	Compound
4.4	3.9			c1ccc(Nc2ncnc3ccc(-c4cccc(N5CCOCC5)c4)cc23)nc1
3.1	3.2			c1cc(-c2ccc3ncnc(Nc4cncnc4)c3c2)cc(N2CCOCC2)c1
5.1				Fc1cccc(COc2ccc(Nc3ncnc4ccc(-n5nncc5CN5CCOCC5)cc34)cc2Cl)c1
3.6	3.8			COc1cnc(Nc2ncnc3ccc(-c4cccc(N5CCOCC5)c4)cc23)cn1
4.3				c1cc(-c2ccc3ncnc(Nc4nccs4)c3c2)cc(N2CCOCC2)c1
3.9	3.2			CCn1nccc1Nc1ncnc2ccc(-c3cccc(N4CCOCC4)c3)cc12
3	2.8			Cc1nnc(Nc2ncnc3ccc(-c4cccc(N5CCOCC5)c4)cc23)nc1C
2.8				c1cc(-c2ccc3ncnc(Nc4nccnn4)c3c2)cc(N2CCOCC2)c1
2.5				O=c1nc(Nc2ncnc3ccc(-c4cccc(N5CCOCC5)c4)cc23)cc[nH]1
3.6				c1cc(-c2ccc3ncnc(Nc4ncco4)c3c2)cc(N2CCOCC2)c1
4.7	4.5			O=C(CN1CCOCC1)Nc1ccc2ncnc(Nc3ccc(OCc4cccc(F)c4)c(Cl)c3)c2c1
		3	3.4	c1cc(Nc2ncnc3ccc(-c4nccc(N5CCOCC5)n4)cc23)ccn1
6.5				Fc1cccc(COc2ccc(Nc3ncnc4ccc(-c5nccc(N6CCOCC6)n5)cc34)cc2Cl)c1
2.7	2.2			O=c1nc(Nc2ncnc3ccc(-c4cccc(N5CCOCC5)c4)cc23)c(F)c[nH]1
3.2	3.1			c1cc(-c2ccc3ncnc(Nc4cnccn4)c3c2)cc(N2CCOCC2)c1
2.9	2.5			c1cnc(Nc2ncnc3ccc(-c4ccnc(N5CCOCC5)n4)cc23)nc1
3.8				c1cc(-c2ccc3ncnc(Nc4cncs4)c3c2)cc(N2CCOCC2)c1
3.6				Cc1cc(Nc2ncnc3ccc(-c4cccc(N5CCOCC5)c4)cc23)on1

logP ([1]; read-out: logP)	logD ([2]; read-out: logD)	logP [1]	logD [2]	Compound
3.8	3.9			c1cncc(Nc2ncnc3ccc(-c4cccc(N5CCOCC5)c4)cc23)c1
		2.8	3.1	c1cc(-c2ccc3ncnc(Nc4ccnnc4)c3c2)cc(N2CCOCC2)c1
5				Cc1cnc(Nc2ncnc3ccc(-c4cccc(N5CCOCC5)c4)cc23)s1
3.8	2.5			c1cnc(Nc2ncnc3ccc(-c4cccc(N5CCOCC5)c4)cc23)nc1
6.5				Fc1cccc(COc2ccc(Nc3ncnc4ccc(-c5ccnc(N6CCOCC6)n5)cc34)cc2Cl)c1
		2.9	3.8	c1cc(Nc2ncnc3ccc(-c4ccnc(N5CCOCC5)n4)cc23)ccn1
3.5	2.8			Nc1cccnc1Nc1ncnc2ccc(-c3cccc(N4CCOCC4)c3)cc12
3.4	3			c1cc(-c2ccc3ncnc(Nc4cccnn4)c3c2)cc(N2CCOCC2)c1
3.9	2.9			Cc1ccnc(Nc2ncnc3ccc(-c4cccc(N5CCOCC5)c4)cc23)n1
3.6	3.2			CC(=O)Nc1cccnc1Nc1ncnc2ccc(-c3cccc(N4CCOCC4)c3)cc12
3.7	3.1			c1cc(-c2ccc3ncnc(Nc4ccncn4)c3c2)cc(N2CCOCC2)c1
3.5	2.9			Nc1ncccc1Nc1ncnc2ccc(-c3cccc(N4CCOCC4)c3)cc12
3.5				c1cc(-c2ccc3ncnc(Nc4nncs4)c3c2)cc(N2CCOCC2)c1
2.9	2			c1cnc(Nc2ncnc3ccc(-c4nccc(N5CCOCC5)n4)cc23)nc1
3.9				Cc1cnnc(Nc2ncnc3ccc(-c4cccc(N5CCOCC5)c4)cc23)c1
5.3				Fc1cccc(COc2ccc(Nc3ncnc4ccc(-c5nnc(N6CCOCC6)[nH]5)cc34)cc2Cl)c1
3.8	4.1			c1cc(-c2ccc3ncnc(Nc4ccncc4)c3c2)cc(N2CCOCC2)c1
5.4				COc1ccc(Nc2ncnc3ccc(-c4cccc(N5CCOCC5)c4)cc23)cc1Cl
